The target in experiment [1] is Glycogen synthase kinase-3 alpha (Homo sapiens, UniProt P49840). In words: TR-FRET Assay. A digest of the protocol:
(§1)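 Compound was preincubated 30 min in assay buffer before the kinase reaction, which was quenched with EDTA. Phosphorylation was detected by TR-FRET after adding a solution of 40 nM streptavidin-d2 and 2 nM Tb-labelled anti-pSer641 antibody.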

Experiment [2] deals with Glycogen synthase kinase-3 beta (Homo sapiens, UniProt P49841). In words: TR-FRET Assay. Put shortly: as §1
On the technique in general: Time-resolved FRET reads energy transfer from a long-lived donor to a nearby acceptor.

Each structure is given as a SMILES string. Several values for one entry are separate records, joined by “and”; a condition that tells them apart may be missing. Equal values may be shown once.

Sequence of Glycogen synthase kinase-3 beta (P49841 whole entry): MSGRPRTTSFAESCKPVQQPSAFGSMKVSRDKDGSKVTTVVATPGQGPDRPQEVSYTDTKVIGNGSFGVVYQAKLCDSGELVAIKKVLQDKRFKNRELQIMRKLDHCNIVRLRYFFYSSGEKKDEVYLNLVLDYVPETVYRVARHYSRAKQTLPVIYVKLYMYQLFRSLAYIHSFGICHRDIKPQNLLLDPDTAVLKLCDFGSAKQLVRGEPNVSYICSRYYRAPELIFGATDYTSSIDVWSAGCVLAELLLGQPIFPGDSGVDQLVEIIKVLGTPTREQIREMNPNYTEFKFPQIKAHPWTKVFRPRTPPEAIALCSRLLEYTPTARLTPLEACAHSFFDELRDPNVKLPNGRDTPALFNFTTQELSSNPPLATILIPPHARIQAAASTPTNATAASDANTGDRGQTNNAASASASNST
Sequence of Glycogen synthase kinase-3 alpha (P49840 whole entry): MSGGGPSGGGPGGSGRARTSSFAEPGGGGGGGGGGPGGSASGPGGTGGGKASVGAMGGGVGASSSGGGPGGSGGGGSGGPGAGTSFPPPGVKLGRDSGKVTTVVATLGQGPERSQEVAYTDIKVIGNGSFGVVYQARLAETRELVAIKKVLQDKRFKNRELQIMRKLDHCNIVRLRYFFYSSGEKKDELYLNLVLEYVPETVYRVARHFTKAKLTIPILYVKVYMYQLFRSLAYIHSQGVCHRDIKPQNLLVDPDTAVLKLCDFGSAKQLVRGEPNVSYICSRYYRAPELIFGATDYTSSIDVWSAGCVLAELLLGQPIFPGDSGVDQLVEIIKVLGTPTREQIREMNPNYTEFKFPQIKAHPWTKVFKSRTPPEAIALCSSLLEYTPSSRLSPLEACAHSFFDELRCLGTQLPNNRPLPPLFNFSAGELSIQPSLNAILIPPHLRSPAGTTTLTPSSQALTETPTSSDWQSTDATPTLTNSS

With `CC[C@]1(c2cccc(N(C)c3cccc(C)n3)c2)C2=CN=NC2NC2=C1C(=O)CC(C)(C)C2` (stereo partly drawn) [US20250313563, Compound 932644], the IC50 in experiment [1] and in experiment [2] was greater than 5000 nM in each case.

As to `CC[C@]1(c2cccc(N(C)c3ccnc(C)c3)c2)C2=CN=NC2NC2=C1C(=O)CC(C)(C)C2` (stereo partly drawn) [US20250313563, Compound 932645], the IC50 (usually the concentration that inhibits the measured activity by half) in experiment [1] lay within 100 to 1000 nM; in experiment [2], 1000 to 5000 nM.

Turning to `CC[C@]1(c2cccc(N(C)c3cccc(OC)n3)c2)C2=CN=NC2NC2=C1C(=O)CC(C)(C)C2` (stereo partly drawn) [US20250313563, Compound 932646], the half-inhibitory concentration (IC50) in experiment [1] and in experiment [2] was greater than 5000 nM in each case.

On to `CC[C@]1(c2cccc(N(C)c3ccc(F)nc3)c2)C2=CN=NC2NC2=C1C(=O)CC(C)(C)C2` (stereo partly drawn) [US20250313563, Compound 932647], for which the concentration for half-maximal inhibition (IC50) in experiment [1] was less than 100 nM; in experiment [2], 100 to 1000 nM.

`Cn1nccc1S(=O)(=O)N1CC2(C1)C1=C(N=NC1)NC1=C2C(=O)CC(C)(C)C1` [US20250313563, Compound 932648]: the IC50 in experiment [1] and in experiment [2] was less than 100 nM in each case.

In the case of `Cn1nccc1S(=O)(=O)N1CCC2(CC1)C1=C(N=NC1)NC1=C2C(=O)CC(C)(C)C1` [US20250313563, Compound 932649], the IC50 in experiment [1] and in experiment [2] was less than 100 nM throughout.

For `CC(C)N1CC2(C1)C1=C(N=NC1)NC1=C2C(=O)CC(C)(C)C1` [US20250313563, Compound 932650], the IC50 in experiment [1] and in experiment [2] was greater than 5000 nM each time.

Turning to `CC1(C)CC(=O)C2=C(C1)NC1=C(CN=N1)C21CN(C2CCOCC2)C1` [US20250313563, Compound 932651], the concentration for half-maximal inhibition (IC50) in experiment [1] and in experiment [2] was greater than 5000 nM throughout.

Take `Cn1ccc(CN2CC3(C2)C2=C(N=NC2)NC2=C3C(=O)CC(C)(C)C2)n1` [US20250313563, Compound 932652]: the IC50 in experiment [1] and in experiment [2] was greater than 5000 nM in each case.

Turning to `Cn1nccc1CN1CC2(C1)C1=C(N=NC1)NC1=C2C(=O)CC(C)(C)C1` [US20250313563, Compound 932653], the IC50 is 1000 to 5000 nM in experiment [1] and greater than 5000 nM in experiment [2].

`CC1(C)CC(=O)C2=C(C1)NC1=C(CN=N1)C21CN(Cc2cnc3ccccn23)C1` [US20250313563, Compound 932654]: the IC50 in experiment [1] and in experiment [2] was greater than 5000 nM throughout.

As to `CC[C@@]1(c2cccc(N3CCOc4ccccc43)c2)C2=CN=NC2NC2=C1C(=O)CC(C)(C)C2` (stereo partly drawn) [US20250313563, Compound 932655], the IC50 in experiment [1] and in experiment [2] was less than 100 nM each time.

As to `CC[C@@]1(c2cccc(N(C)c3cccc(C)n3)c2)C2=CN=NC2NC2=C1C(=O)CC(C)(C)C2` (stereo partly drawn) [US20250313563, Compound 932656], the IC50 in experiment [1] and in experiment [2] was greater than 5000 nM each time.

On to `CC[C@@]1(c2cccc(-c3ccnc(C)c3)c2)C2=CN=NC2NC2=C1C(=O)C[C@H](C)C2` (stereo partly drawn) [US20250313563, Compound 932657], for which the IC50 in experiment [1] is less than 100 nM; in experiment [2], 1000 to 5000 nM.

For the compound `CC[C@]1(c2cccc(-c3ccnc(C)c3)c2)C2=CN=NC2NC2=C1C(=O)N[C@@H](C)C2` (stereo partly drawn) [US20250313563, Compound 932658], the figures for the half-inhibitory concentration (IC50) in experiment [1] and in experiment [2] were less than 100 nM and 100 to 1000 nM, respectively.

With `CC1(C)CC(=O)C2=C(C1)NC1=C(CN=N1)[C@]21CCCN(S(=O)(=O)C2CC2)CC1` [US20250313563, Compound 932659], the half-inhibitory concentration (IC50) in experiment [1] was less than 100 nM; in experiment [2], 100 to 1000 nM.

For the compound `Cn1ccc(S(=O)(=O)N2CCC[C@@]3(CC2)C2=CN=NC2NC2=C3C(=O)CC(C)(C)C2)n1` (stereo partly drawn) [US20250313563, Compound 932660], the IC50 in experiment [1] is less than 100 nM; in experiment [2], 100 to 1000 nM.

Regarding `COc1ccc(S(=O)(=O)N2CCC[C@@]3(CC2)C2=CN=NC2NC2=C3C(=O)CC(C)(C)C2)cc1` (stereo partly drawn) [US20250313563, Compound 932661], the IC50 in experiment [1] is less than 100 nM; in experiment [2], 100 to 1000 nM.

For `CC[C@@]1(c2cccc(N(C)c3ccnc(OC)c3)c2)C2=CN=NC2NC2=C1C(=O)CC(C)(C)C2` (stereo partly drawn) [US20250313563, Compound 932662], the concentration for half-maximal inhibition (IC50) in experiment [1] and in experiment [2] was greater than 5000 nM in each case.

In the case of `CC[C@@]1(c2cccc(N(C)c3cccc(C)n3)c2)C2=CN=NC2NC2=C1C(=O)CC(C)(C)C2` (stereo partly drawn) [US20250313563, Compound 932664], the IC50 was less than 100 nM in experiment [1] and 100 to 1000 nM in experiment [2].

Take `CC[C@@]1(c2cccc(CN(C)c3ccnc(C)c3)c2)C2=CN=NC2NC2=C1C(=O)CC(C)(C)C2` (stereo partly drawn) [US20250313563, Compound 932665]: the half-inhibitory concentration (IC50) in experiment [1] and in experiment [2] was greater than 5000 nM throughout.

For the compound `CC[C@@]1(c2cccc(N(C)c3cccc(OC)n3)c2)C2=CN=NC2NC2=C1C(=O)CC(C)(C)C2` (stereo partly drawn) [US20250313563, Compound 932666], the concentration for half-maximal inhibition (IC50) in experiment [1] is less than 100 nM; in experiment [2], 100 to 1000 nM.

As for `CC[C@@]1(c2cccc(CN(C)c3ccc(F)nc3)c2)C2=CN=NC2NC2=C1C(=O)CC(C)(C)C2` (stereo partly drawn) [US20250313563, Compound 932667], the half-inhibitory concentration (IC50) in experiment [1] and in experiment [2] was greater than 5000 nM in each case.

With `COC(=O)C1(c2ccccc2)CC2(C1)C1=C(N=NC1)NC1=C2C(=O)CC(C)(C)C1` (stereo not drawn) [US20250313563, Compound 942366], the half-inhibitory concentration (IC50) in experiment [1] and in experiment [2] was less than 100 nM in each case.

Turning to `CC1(C)CC(=O)C2=C(C1)NC1=C(CN=N1)[C@]21CCN(S(C)(=O)=O)C1` [US20250313563, Compound 942432], the IC50 in experiment [1] and in experiment [2] was less than 100 nM each time.

On to `CC1(C)CC(=O)C2=C(C1)NC1=C(CN=N1)[C@@]21CCN(S(C)(=O)=O)C1` [US20250313563, Compound 942462], for which the half-inhibitory concentration (IC50) in experiment [1] and in experiment [2] was less than 100 nM in each case.

Regarding `CCC1(c2cccc(N(C)c3nccc(C)n3)c2)C2=CN=NC2NC2=C1C(=O)CC(C)(C)C2` (stereo not drawn) [US20250313563, Compound 942642], the 50% inhibitory concentration (IC50) is less than 100 nM in experiment [1]; < 100 nM and 1000 to 5000 nM in experiment [2].

On to `CCC1(c2cccc(-c3cc(C)nn3C)c2)C2=C(N=NC2)NC2=C1C(=O)NC(C)(C)C2` (stereo not drawn) [US20250313563, Compound 943371], for which the half-inhibitory concentration (IC50) in experiment [1] was less than 100 nM; in experiment [2], 1000 to 5000 nM.

Consider `CC1(C)CC(=O)C2=C(C1)NC1=C(CN=N1)[C@]21CCN(S(=O)(=O)CC2CC2)C1` [US20250313563, Compound 943481], for which the IC50 in experiment [1] was < 100 nM and 100 to 1000 nM; in experiment [2] it was < 100 nM and 100 to 1000 nM.

For the compound `CC1(C)CC(=O)C2=C(C1)NC1=C(CN=N1)[C@]21CCN(S(=O)(=O)C2CCCC2)C1` [US20250313563, Compound 943482], the concentration for half-maximal inhibition (IC50) was < 100 nM and 100 to 1000 nM in experiment [1]; < 100 nM and 100 to 1000 nM in experiment [2].

In the case of `Cn1cc(S(=O)(=O)N2CC[C@@]3(C2)C2=C(N=NC2)NC2=C3C(=O)CC(C)(C)C2)cn1` [US20250313563, Compound 943483], the IC50 in experiment [1] and in experiment [2] was less than 100 nM each time.

`Cn1ccc(S(=O)(=O)N2CC[C@@]3(C2)C2=C(N=NC2)NC2=C3C(=O)CC(C)(C)C2)n1` [US20250313563, Compound 943484]: the IC50 in experiment [1] is < 100 nM and 100 to 1000 nM; in experiment [2], < 100 nM and 1000 to 5000 nM.

For `CC1(C)CC(=O)C2=C(C1)NC1=C(CN=N1)[C@]21CCN(S(=O)(=O)c2ccccc2)C1` [US20250313563, Compound 943485], the IC50 in experiment [1] was < 100 nM and 100 to 1000 nM; in experiment [2] it was < 100 nM and 1000 to 5000 nM.

In the case of `COc1cccc(S(=O)(=O)N2CC[C@@]3(C2)C2=C(N=NC2)NC2=C3C(=O)CC(C)(C)C2)c1` [US20250313563, Compound 943486], the 50% inhibitory concentration (IC50) in experiment [1] and in experiment [2] was less than 100 nM in each case.

The values above are taken from BindingDB's records for patent US20250313563 (The Broad Institute, 2025).
